Tests used:
[1] = Determination of stability in human plasma; type: in vitro ADME
Protocol: (§1) A stock solution of 1.0 mg of the substance to be tested in a 9:1 mixture of acetonitrile and dimethyl sulphoxide was prepared. 20 μl of this stock solution were added at 37° C. to 1 ml of human plasma or rat plasma. To determine the content, 100 μl samples were each taken at different times. The enzyme activity was blocked by adding 300 μl of acetonitrile, the samples were centrifuged at 5000 rpm over 10 minutes and, in the supernatant, the content of ester and hydrolysis products (8S,11R,13S,14S,17S)-17-hydroxy-11-[4-((R)-1-hydroxyethyl)phenyl]-1 3-methyl-17-pentafluoroethyl-1,2,6,7,8,11,12,13,14,15,16,17-dodecahydrocyclopenta[a]phenanthren-3-one and/or (8S,11R,13S,14S,17S)-17-hydroxy-11-[4-((S)-1-hydroxyethyl)phenyl]-13-methyl-17-pentafluoroethyl-1,2,6,7,8,11,12,13,14,15,16,17-dodecahydrocyclopenta[a]phenanthrene-3-one was determined by HPLC. The concentration-time curves were used to calculate the degradation kinetics. The stability of the substance tested was reported as the half-life.

[2] = Determination of stability in rat plasma; type: in vitro ADME; details: 37° C., read-out: Stability t1/2 in rat plasma (converted)
Protocol: as §1

[3] = molecular target: T1, human progesterone receptor B (Homo sapiens, UniProt P06401); test: Progesterone receptor transactivation test in stably transfected SK-N-MC cells (PR-B, MMTV-LUC reporter); type: cell-based; details: 0.1 nmol/l promegestone, 24 hours, read-out: PR-B IC50 (antagonistic potency)
T1 construct: expressed in transfected cells; host or cells: SK-N-MC human neuroblastoma cells, stably transfected with pRChPR-B-neo and pMMTV-LUC
T1 sequence (P06401 1-933): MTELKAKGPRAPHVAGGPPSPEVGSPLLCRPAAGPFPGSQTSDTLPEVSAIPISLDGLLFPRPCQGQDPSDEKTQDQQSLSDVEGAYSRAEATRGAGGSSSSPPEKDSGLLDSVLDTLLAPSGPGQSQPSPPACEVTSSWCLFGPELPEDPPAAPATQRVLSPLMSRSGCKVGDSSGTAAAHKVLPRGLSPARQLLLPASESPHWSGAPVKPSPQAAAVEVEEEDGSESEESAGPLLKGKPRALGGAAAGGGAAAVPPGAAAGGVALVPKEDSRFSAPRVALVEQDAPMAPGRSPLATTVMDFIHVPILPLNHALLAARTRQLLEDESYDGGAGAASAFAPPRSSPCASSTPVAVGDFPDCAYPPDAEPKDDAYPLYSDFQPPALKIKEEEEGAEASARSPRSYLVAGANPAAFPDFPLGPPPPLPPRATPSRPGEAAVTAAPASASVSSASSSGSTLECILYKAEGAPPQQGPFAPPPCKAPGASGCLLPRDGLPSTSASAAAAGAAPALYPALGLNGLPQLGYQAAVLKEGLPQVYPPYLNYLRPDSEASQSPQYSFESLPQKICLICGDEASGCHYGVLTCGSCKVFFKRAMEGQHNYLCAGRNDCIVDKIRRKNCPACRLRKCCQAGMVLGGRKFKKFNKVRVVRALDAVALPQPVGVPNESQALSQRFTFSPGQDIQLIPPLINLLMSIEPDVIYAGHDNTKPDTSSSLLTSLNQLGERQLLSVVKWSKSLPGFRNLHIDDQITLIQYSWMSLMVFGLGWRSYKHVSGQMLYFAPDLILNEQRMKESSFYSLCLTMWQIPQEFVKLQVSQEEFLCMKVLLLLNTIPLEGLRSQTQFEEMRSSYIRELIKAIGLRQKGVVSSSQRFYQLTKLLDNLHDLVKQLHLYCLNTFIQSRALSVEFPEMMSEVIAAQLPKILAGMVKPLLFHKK
Protocol: Progesterone receptor-antagonistic action in stable transfectants of human neuroblastoma cells (SK-N-MC cells) with the human progesterone A or progesterone B receptor and an MN-LUC reporter construct SK-N-MC cells (human neuroblastoma cells) which have been stably transfected with plasmids expressing the human progesterone receptor B (pRChPR-B-neo) or the human progesterone receptor A (pRChPR-A-neo) and a reporter construct (pMMTV-LUC) were incubated for 24 hours either in the absence (negative control) or in the presence of ascending amounts of the particular test compound (0.01 nmol/l, 0.1 nmol/l, 1 […], 100 nmol/l and […]), in order to determine the agonistic efficacy. As a positive control of the reporter gene induction, the cells were treated with the synthetic gestagen promegestone (0.01 nmol/l, 0.1 nmol/l, 1 nmol/l, 10 nmol/l, 100 nmol/l and […]). To determine the antagonistic activity, the cells were treated with 0.1 nmol/l promegestone and additionally with ascending amounts of the particular test compound (0.01 nmol/l, 0.1 nmol/l, 1 nmol/l, 10 nmol/l, 100 nmol/l and […]). The activity of the reporter gene LUC (LUC=luciferase) was determined in the cell lysates and measured as RLU (relative light units). All measurements are reported as % efficacy and as EC50 and IC50 concentrations.

[4] = Determination of hydrolytic stability in synthetic gastric juice (pH 1.2 buffer with pepsin); type: in vitro ADME; details: 37° C., pH 1.2 with added pepsin, test ended after 24 hours, read-out: Hydrolytic stability t1/2 in synthetic gastric juice (converted)
Protocol: The esters to be analyzed were dissolved in each case in a buffer solution of pH 1.2 with added pepsin at 37° C. At different times, the content of ester and hydrolysis products (8S,11R,13S,14S,17S)-17-hydroxy-11-[4-((R)-1-hydroxyethyl)phenyl]-1 3-methyl-17-pentafluoroethyl-1,2,6,7,8,11,12,13,14,15,16,17-dodecahydrocyclopenta[a]phenanthren-3-one and/or (8S,11R,13S,14S,17S)-17-hydroxy-11-[4-((S)-1-hydroxyethyl)phenyl]-13-methyl-17-pentafluoroethyl-1,2,6,7,8,11,12,13,14,15,16,17-dodecahydrocyclopenta[a]phenanthren-3-one was determined by HPLC. The test was ended after 24 hours.

[5] = Determination of hydrolytic stability (5:1 dioxane/buffer, HPLC); type: physicochemical; details: 5:1 dioxane/buffer solution, test ended after 24 or 192 hours, read-out: Hydrolytic stability t1/2
Protocol: The ester to be analyzed was dissolved in each case in a 5:1 mixture of dioxane and buffer solution (pH 1.2, pH 5.0 or pH 8.0) at 23° C. At different times, the content of ester and hydrolysis products (8S,11R,13S,14S,1 7S)-17-hydroxy-11-[4-((R)-1-hydroxyethyl)phenyl]-13-methyl-17-pentafluoroethyl-1,2,6,7,8,11,12,13,14,15,16,17-dodecahydrocyclopenta[a]phenanthren-3-one and/or (8S,11R,13S,14S,17S)-17-hydroxy-11-[4-((S)-1-hydroxyethyl)phenyl]-1 3-methyl-17-pentafluoroethyl-1,2,6,7,8,11,12,13,14,15,16,17-dodecahydrocyclopenta[a]phenanthren-3-one was determined by HPLC. The test was ended after 24 hours or 192 hours.

[6] = 37° C., read-out: Stability t1/2 in human plasma (converted)
[7] = method of working example 19, summary statement in description, read-out: half-life in human plasma

half-life [1, 6] [h]	half-life [1, 7] [h]	half-life [2] [h]	IC50 [3] [pM]	half-life [4] [h]	half-life ([5]; pH = 1.2, 23° C.) [h]	half-life ([5]; pH = 5.0, 23° C.) [h]	half-life ([5]; pH = 8.0, 23° C.) [h]	SMILES
609	> 100	57.5	80	9.6	> 24	> 24	> 24	CC(=O)O[C@H](C)c1ccc([C@H]2C[C@@]3(C)C(CC[C@@]3(O)C(F)(F)C(F)(F)F)C3CCC4=CC(=O)CCC4=C32)cc1 (mixture of isomers) [Example 1, acetic acid (RS)-1-[4-((8S,11R,13S,14S,17S)-17-hydroxy-13-methyl-3-oxo-17-pentafluoroethyl-2,3,6,7,8,11,12,13,14,15,16,17-dodecahydro-1H-cyclopenta[a]phenanthren-11-yl)phenyl]ethyl ester]
> 1000	> 100	89	200	> 24	> 24	> 24	> 24	CC(C)CC(=O)OC(C)c1ccc([C@H]2C[C@@]3(C)C(CC[C@@]3(O)C(F)(F)C(F)(F)F)C3CCC4=CC(=O)CCC4=C32)cc1 (mixture of isomers) [Example 3, 3-Methylbutyric acid (RS)-1-[4-((8S,11R,13S,14S,17S)-17-hydroxy-13-methyl-3-oxo-17-pentafluoroethyl-2,3,6,7,8,11,12,13,14,15,16,17-dodecahydro-1H-cyclopenta[a]phenanthren-11-yl)phenyl]ethyl ester]
803	> 100	33.4	100	> 24	> 24	> 24	> 24	CC(C)C(=O)OC(C)c1ccc([C@H]2C[C@@]3(C)C(CC[C@@]3(O)C(F)(F)C(F)(F)F)C3CCC4=CC(=O)CCC4=C32)cc1 (mixture of isomers) [Example 2, Isobutyric acid (RS)-1-[4-((8S,11R,13S,14S,17S)-17-hydroxy-13-methyl-3-oxo-17-pentafluoroethyl-2,3,6,7,8,11,12,13,14,15,16,17-dodecahydro-1H-cyclopenta[a]-phenanthren-11-yl)phenyl]ethyl ester]

More lines, now with the values behind:

SMILES	half-life [1, 6] [h]	half-life [1, 7] [h]	half-life [2] [h]	IC50 [3] [pM]	half-life [4] [h]	half-life ([5]; pH = 1.2, 23° C.) [h]	half-life ([5]; pH = 5.0, 23° C.) [h]	half-life ([5]; pH = 8.0, 23° C.) [h]
CC(OC(=O)CC(C)(C)C)c1ccc([C@H]2C[C@@]3(C)C(CC[C@@]3(O)C(F)(F)C(F)(F)F)C3CCC4=CC(=O)CCC4=C32)cc1 (mixture of isomers) [Example 4, 3,3-Dimethylbutyric acid (RS)-1-[4-((8S,11R,13S,14S,17S)-17-hydroxy-13-methyl-3-oxo-17-pentafluoroethyl-2,3,6,7,8,11,12,13,14,15,16,17-dodecahydro-1H-cyclopenta[a]phenanthren-11-yl)phenyl]ethyl ester]	> 1000	> 100	> 1000	400	> 24	> 24	> 24	> 24
CC(OC(=O)[C@@H](C)NC(=O)OC(C)(C)C)c1ccc([C@H]2C[C@@]3(C)[C@@H](CC[C@@]3(O)C(F)(F)C(F)(F)F)[C@@H]3CCC4=CC(=O)CCC4=C32)cc1 (mixture of isomers) [Example 6, (R)-2-tert-Butoxycarbonylaminopropionic acid (RS)-1-[4-((8S,11R,13S,-14S,17S)-17-hydroxy-13-methyl-3-oxo-17-pentafluoroethyl-2,3,6,7,8,11,12,13,14,15,16,17-dodecahydro-1H-cyclopenta[a]phenanthren-11-yl)phenyl]ethyl ester]	491	> 100	43.9	200	5.4	> 24	> 24	> 24
CC(OC(=O)[C@@H](NC(=O)OC(C)(C)C)C(C)C)c1ccc([C@H]2C[C@@]3(C)C(CC[C@@]3(O)C(F)(F)C(F)(F)F)C3CCC4=CC(=O)CCC4=C32)cc1 (mixture of isomers) [Example 5, (S)-2-tert-Butoxycarbonylamino-3-methylbutyric acid (RS)-1-[4-((8S,11R,-13S,14S,17S)-17-hydroxy-13-methyl-3-oxo-17-pentafluoroethyl-2,3,6,7,8,11,12,13,14,15,-16,17-dodecahydro-1H-cyclopenta[a]phenanthren-11-yl)phenyl]ethyl ester]	> 1000	> 100	156	800	3	> 192	> 192	> 192
CC(OC(=O)[C@H](C)NC(=O)OC(C)(C)C)c1ccc([C@H]2C[C@@]3(C)C(CC[C@@]3(O)C(F)(F)C(F)(F)F)C3CCC4=CC(=O)CCC4=C32)cc1 (mixture of isomers) [Example 7, (S)-2-tert-Butoxycarbonylaminopropionic acid (RS)-1-[4-((8S,11R,13S,-14S,17S)-17-hydroxy-13-methyl-3-oxo-17-pentafluoroethyl-2,3,6,7,8,11,12,13,14,15,16,17-dodecahydro-1H-cyclopenta[a]phenanthren-11-yl)phenyl]ethyl ester]	> 1000	> 100	3.1	100	4.4	> 24	> 24	> 24
